# Source: US12011476B2, “Treatments of oxidative stress conditions” (The University of Vermont and State Agricultural College, priority 2012, dated 2024)
# What was measured:
# Assay type in all cases: cell-based, murine
# Fas-SSG [1] = assay: Immunoprecipitation of S-glutathionylated Fas (Fas-SSG) after FasL stimulation; settings: FasL-stimulated cells, compared to the respective control (muscimol, DMSO, control siRNA)
# Description: (§1) Exposure of cells to FasL: C10 cells were treated with 150 ng/ml FLAG-FasL (Alexis, San Diego, CA), plus 0.5 micrograms/ml anti-FLAG cross linking antibody, M2 (Sigma, St. Louis, MO). Primary lung fibroblasts and MTECs were treated with 300 ng/ml FasL, plus 1 microgram/ml M2. As reagent controls, cells were treated with M2 alone.
# Immunoprecipitation of S-glutathionylated Fas: Immunoprecipitation of S-glutathionylated Fas was performed using established techniques.
# C10 lung epithelial cells were stimulated with Flag tagged FasL plus anti-Flag (M2) crosslinking antibody, M2 alone (0), and at the indicated times, lysates were prepared and immunoprecipitated (IP) using an anti-GSH antibody. The subsequent western blot was probed with anti-Fas antibody (top panel). The +DTT control reflects lysates prepared from FasL-stimulated cells at 120 min treated with 25 mM DTT prior to IP with the anti-GSH antibody. Bottom panels: Content of Fas and Grx1 in whole cell lysates (WCL). […] C10 lung epithelial cells were stimulated with FasL plus M2 crosslinking antibody, or M2 alone, and at the indicated times, supernatants were collected. Free GSH was measured. * p<0.05 (ANOVA), compared to M2 controls at the same time points.
# caspase 8 = assay: Caspase-Glo 8 assay after FasL stimulation; settings: FasL-stimulated cells, compared to the respective control
# Description: as §1
# (§2) Caspase-Glo assay: Caspase-8 and caspase-3 activities were measured using a Caspase-Glo 8 and Caspase-Glo 3/7 (Promega, Madison, WI) reagents, respectively according to the manufacturer's protocol (Promega, Madison, WI). Results were expressed in Relative Luminescence Units (RLU), after subtraction of background luminescence values. All results were obtained from 3 independent experiments conducted in triplicate.
# caspase 3 = assay: Caspase-Glo 3/7 assay after FasL stimulation; settings: FasL-stimulated cells, compared to the respective control
# Description: as §1, §2
# ERp57 = assay: Protein disulfide isomerase (PDI) assay, insulin reduction, lysates of treated cells
# Description: Protein disulfide isomerase (PDI) assay: 10 micrograms of total cell lysates were incubated with folded insulin, fibril protein binding dye for 1 hr. The fluorescence was then measured in a microplate reader set at a excitation of 500 nm and an emission of 603 nm, per the manufacturer's protocol (Proteostat™ PDI assay kit ENZ-51024-KP002). All results were obtained from 3 independent experiments conducted in triplicate.
# Pharmacologic inhibition of ERp57 and GSTP1 decreased Fas-SSG and caspase activation: next, the contribution of the catalytic activities of ERp57 and GSTP in mediating S-glutathionylation of Fas, and subsequent activation of caspases, was asessed.
# The results are expressed as relative fluorescence units (RFU). * p<0.05 (Student t-test) compared to muscimol treated cells. […] Cell lysates were processed as in FIG. 1A to determine Fas-SSG (FIGS. 5D and 5E). Inhibition of ERp57 decreased caspase 8, and caspase 3 activities. * p<0.05 ANOVA, compared to muscimol-treated cells.
# caspase-3 = assay: TNF-alpha plus cycloheximide (CHX) induced caspase-3 activation; settings: pre-incubation before TNF-alpha in the presence of cycloheximide, FIG. 5J
# Description: as §2
# In addition to Fas, the extracellular/ligand binding domains of other members of the TNF receptor superfamily also contained cysteines that form intra-molecular disulfide bridges (—S—S—) to create the ligand binding domain. These experiments therefore determined whether ERp57-mediated oxidative processing regulates TNFR-dependent apoptosis. Cells were incubated with the ERp57 inhibitor, thiomuscimol prior to stimulation with TNF-alpha in the presence of cycloheximide (CHX) to induce apoptosis.
# (§3) The results are expressed as nmol of CDNB […]/min/mg protein. * p<0.05 (Student t-test) compared to DMSO controls. […] Cells were pre-incubated TLK-199 or DMSO for 2 hours, prior to stimulation with FasL. Lysates were processed as in FIG. 1A. Inhibition of GSTP decreased the activities of caspases 8 (FIG. 5H) and 3 (FIG. 5I) induced by FasL. * p<0.05 ANOVA, compared to DMSO controls. […] Mus: muscimol control. * p<0.05 ANOVA, compared to TNF-alpha+CHX controls.
# GSTP = biological target: T1, GSTP (Mus musculus, UniProt P19157); assay: GST activity assay (CDNB-GST) in treated cells; settings: cells incubated with 50 micromolar for 2 hours, vs 0.2% DMSO, FIG. 5F
# T1 construct: endogenous in cells; host or cells: murine lung epithelial cells (C10)
# T1 sequence (P19157 2-210): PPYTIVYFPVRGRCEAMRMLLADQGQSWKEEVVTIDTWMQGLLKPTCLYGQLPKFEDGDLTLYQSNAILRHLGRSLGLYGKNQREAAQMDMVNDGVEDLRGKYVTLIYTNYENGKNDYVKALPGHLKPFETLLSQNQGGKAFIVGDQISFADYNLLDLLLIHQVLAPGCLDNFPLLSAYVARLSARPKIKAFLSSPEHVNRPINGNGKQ
# Description: GST activity assay: The GST activity was determined using a colorimetric activity assay kit (ab65326, Abcam, Cambridge, MA) based on the GST-catalyzed reaction between GSH and the GST substrate, CDNB (1-chloro-2,4-dinitrobenzene). The GST-catalyzed formation of CDNB-GSH produced a dinitrophenyl thioether which can be detected spectrophotometrically at 340 nm.
# as §3
# Fas-SSG [2] = assay: Cell fractionation and IP of Fas-SSG (ER vs cytosol/pm); settings: FasL-stimulated cells, vs DMSO vehicle control, FIG. 3D
# Description: Cell Fractionation: Cell fractionation was carried out using the Calbiochem ProteoExtractTR (Cat. No. 539790) subcellular proteome extraction kit per the manufacturer's protocol.
# Proteins from each fraction were subjected to IP using anti-GSH antibody. Western blots were probed for Fas. 25 micrograms of total protein from each fractions were separated on a SDS-PAGE and probed for Fas, ERp57, GSTP1, Prx1 (cytosolic protein), Flotillinl (Flot1, plasma membrane protein), calreticulin (CRT, an ER restricted protein), histone H3 (nuclear marker). […] Cells were treated with FasL, stained with ERp57, Fas, and the nuclear marker, DAPI. Merged images indicate co-localization of Fas and ERp57. […] Proteins from fractions characterized in FIG. 3A were subjected to IP using anti-GSTP1 antibodies, or control IgG. […] Epithelial cells were treated with FasL, in the presence or absence of Brefeldin A. Cells were fractionated as in FIG. 3A, and proteins from each fraction were subjected to IP using anti-GSH antibody. Western blots were probed for Fas. 25 micrograms of total protein from each fraction was separated on a SDS-PAGE and probed for Fas, ERp57, GSTP1, Prx1 (cytosol), Flot1 (plasma membrane), CRT (ER), H3 (nucleus).
# C10 cells = assay: Cell viability assay (MTT) after FasL stimulation; settings: MTT assay after stimulation with FasL
# Description: Cell viability assay: C10 cells or primary lung fibroblasts were plated in 12-well dishes. The MTT (3-(4,5-dimethylthiazol-2-yl)-2,5-diphenyltetrazolium bromide) assay was performed using known techniques. Results were obtained from 3 independent experiments conducted in triplicate.
# Cells were exposed to FasL, and cell lysates processed as in FIG. 1A. Western blots from WCL were sequentially probed for Fas, ERp57 and GSTP1. […] Cells were treated with FasL, and lysates processed as in FIG. 2B. […] Cells were transfected with ERp57 and GSTP1 siRNA (E+P), and 24 hours later were exposed to FasL+M2 crosslinking antibody (FL), or M2 alone for 30 min. Cell lysates were subjected to IP of the DISC. Western blots were sequentially probed for Fas, FADD, procaspase 8, ERp57 and GSTP1. WCL: assessment of the same proteins in whole cell lysates, as a control.
# Fas-SH = assay: Labeling of free sulfhydryls of Fas (Fas-SH) with MPB, oxidative processing; settings: FasL-stimulated cells
# Description: Microscopy: Cells were fixed in 4% formalin and permeabilizied with 0.2% Triton-X100 in PBS. Permeabilized cells were blocked in PBS containing 2% BSA for 1 hour. Cells were sequentially incubated with primary antibodies (1:500-rabbit anti-ERp57/mouse anti-Fas) and secondary antibodies (1:1000-anti-rabbit-Alexa Fluor 488/anti-mouse Alexa Fluor 647). The nucleus was stained with DAPI (1:4000). Images were acquired using a Zeiss LSM 510 META Confocal Laser Scanning Imaging System. Images were captured at 40× magnification in oil immersion. The image files were converted to Tiff format. Brightness and contrast were adjusted equally in all images. Labeling of free sulfhydryls using biotinylated N-ethyl maleimide (MPB): Cells were lysed in HEPES buffer, pH 7.4 containing 0.5% NP40, with 150 micromolar MPB for 1 hour at ambient temperature. Lysates were centrifuged at 14,000 rpm and passed through a microbiospin (Bio-Rad) column to separate free MPB. The eluent whole cell lysate was immunoprecipitated using an anti-Fas antibody and sequentially probed using streptavidin HRP and anti-Fas antibody.
# The transmembrane domain is underlined. ELD; extracellular ligand binding domain, CDD; Cytoplasmic Death Domain. […] C10 lung epithelial cells were treated with FasL. The lysates were labeled with MPB, and IPed using an anti-Fas antibody. […]
Compound,Fas-SSG in response to FasL (Fas-SSG [1]),caspase 8 activity in response to FasL (caspase 8),caspase 3 activity in response to FasL (caspase 3),TNF-alpha/CHX-mediated activation of caspase-3 (caspase-3),also measured
"CC1(C)CC(=O)CC(=O)C1 [dimedone, 5,5-dimethyl-1,3-cyclohexanedione]",abolished,–,–,–,–
"NCc1cc(O)ns1 [thiomuscimol, 5-aminomethyl-3-isothiazolol]",significantly attenuated,corresponding decreases,corresponding decreases,significantly decreased,"inhibition of ERp57, as measured by RFU (ERp57; FIG. 10, THM vs DMSO, lysates incubated with Bacitracin for 2 hrs as positive control): exhibited inhibition of ERp57; decrease in insulin reducing activity (ERp57; epithelial cells incubated with thiomuscimol (10 micromolar), compared to muscimol controls, FIG. 5A): ~50%"
NCc1cc(=O)[nH]o1 [muscimol],–,–,–,did not affect apoptosis,–
"CCOC(=O)[C@@H](N)CCC(=O)N[C@@H](CSCc1ccccc1)C(=O)N[C@@H](C(=O)OCC)c1ccccc1 [TLK199, gamma-glutamyl-S-(benzyl)cysteinyl-R-phenyl glycine diethyl ester]",diminished,diminished,diminished,–,decrease in GSTP activity (GSTP): 80%
C[C@H]1CCC/C=C/[C@@H]2C[C@H](O)C[C@H]2[C@H](O)/C=C/C(=O)O1 [Brefeldin A],–,–,–,–,movement of Fas-SSG from ER to cytosol/pm (Fas-SSG [2]): Fas-SSG remained restricted to the ER fraction
CC(=O)OCOC(=O)CN(CC(=O)OCOC(C)=O)c1ccccc1OCCOc1ccccc1N(CC(=O)OCOC(C)=O)CC(=O)OCOC(C)=O [BAPTA-AM],substantially diminished,decreased,decreased,–,cell survival / cell death in response to FasL (C10 cells): increased cell survival; Fas-SH content (oxidative processing of Fas) after FasL (Fas-SH): completely prevented the loss of Fas-SH groups
